Test results published in patent publication EP3964196A1, “USE OF CHL[…] CETYLPYRIDINIUM CHLORIDE AS ANTIVIRAL AGENTS” (Ferton Holding S.A., priority 2020, dated 2022).

Test system: SARS-CoV-2
Experiment: Virucidal efficacy: 30sec incubation of SARS-CoV-2 with mouth rinsing solution, then standard plaque assay on Vero E6 cells
Assay type: cell-based, Severe acute respiratory syndrome coronavirus 2
Conditions: 1x10^6 pfu SARS-CoV-2 incubated with solution (2-fold diluted) for 30sec at 37°C; Dilution 4 analyzed on Vero E6; compared to negative control
Protocol: A mouth rinsing solution according to the invention (see example 1 below) and some of their individual active components were tested regarding their virucidal efficacy against the novel coronavirus SARS-CoV-2, in vitro. To evaluate if this procedure is sufficient to successfully inactivate SARS-CoV-2, in the following study 1x10^6 infectious SARS-CoV-2 particles were incubated with the solutions (dilution factor: 2) for 30sec. After a serial dilution the samples were submitted to a standard plaque assay to check for the presence of infectious virus particles post incubation with the different solutions.
Test solutions: • Example 1 (0.1% Chlorhexidine (CHX), 0.05% CPC, PEG-40 hydrogenated castor oil), according to the invention Comparative examples: • 0.1% CHX plus 0.05% CPC • 0.05% CPC • 0.1% CHX • 1.5% H2O2 • 0.5% H2O2 […]
The samples were mixed briefly by vortexing and incubated at 37°C for 30sec. […] Dilution 4 of each sample was analyzed in technical duplicates in a plaque assay. […]
The virucidal activity of example 1 and some of their individual components were investigated against the novel corona virus SARS-CoV-2 by a 30sec incubation of 1x10^6 pfu SARS-CoV-2 with the test substances, followed by a standard plaque assay. […] Medium", positive control, in column 3, each analyzed in technical duplicates.

Row | Structure (SMILES) | infectious SARS-CoV-2 particles / number of plaques in the plaque assay
1 | [H]/N=C(\N/C(=N/[H])NCCCCCCNC(=N)NC(=N)Nc1ccc(Cl)cc1)Nc1ccc(Cl)cc1 [0.1% CHX, Chlorhexidine] | no reduction compared to the negative control
2 | OO [1.5% H2O2, Hydrogen peroxide] | no reduction compared to the negative control
